Results reported in patent publication US9096544B2, “Therapeutic compounds” (Wayne State University, priority 2009, dated 2015).

Columns and labels:
[1] = Test G: effect on body weight of repeated escalating dosing (toxicity, MTD); assay type: in vivo; details: IV once a day for 7 days, 20 mg/kg increased by 25% each dose; two female mice per group
Procedure: Mice were treated with escalating doses of either compound 16 or 3-Cl-AHPC to establish the difference in toxicity (MTD) between these compounds as measured by decreased body weight (FIG. 8). Two groups of mice, each consisting of two female ICR-SCIDS mice, were injected IV with either compound 16 or 3-Cl-AHPC once a day for 7 days. The initial IV injection of 20 mg/kg for each compound was increased by 25% for each ensuing dose. Body weights were measured on each of the seven days with the final body weights determined 48 hours post final dose. […] The final weight for this mouse was recorded 2 hours after death.

TF(v-SRC) cells = assay: Test E: inhibition of TF(v-SRC) cell growth in SCID mice (systemic model); assay type: in vivo; details: 20 mg/kg intravenously every other day, 15 doses
Procedure: (§1) FIG. 7 illustrates compound 16 inhibited TF(v-SRC) proliferation and growth in SCID mice. NOD SCID mice were randomized into two groups of eight. Each mouse was injected with 1×10^7TF(v-SRC) cells and 24 h later mice were either treated intravenously with compound 16 (20 mg/kg) or vehicle on a Monday, Wednesday and Friday schedule for five weeks. Mice were monitored for toxicity and survival. A) Survival of TF(vSRC) inoculated mice treated with compound 16, and B) absence of weight loss in compound 16 treated SCID mice. C) compound 16 inhibited palpable TF(v-SRC) growth in SCID mice. TF(v-SRC) cells were grown subcutaneously in a maintenance SCID mouse. The tumor was harvested and approximately 20 mg of tumor was subcutaneously injected utilizing a trochar into each flank of a SCID mouse. The tumors were then allowed to reach a size of 100 mg. The mice were randomized into three groups of 8 mice. Groups were treated either intravenously or subcutaneously at a distant site from the tumor with 20 mg/kg of compound 16 on a Monday, Wednesday and Friday schedule for 12 injections (4 weeks). Control mice were treated intravenously with vehicle.
Non-obese diabetic-severe combined immunodeficiency (NOD-SCID) and ICR-SCID mice were obtained from Jackson Laboratories (Bar Harbor, Me.) and Taconic Farms (Germantown, N.Y.), respectively. A) FFMA-AML and TF(v-SRC) systemic models: NOD-SCID and ICR-SCID mice (4 to 5 weeks old) were injected with either FFMA-AML or TF(v-SRC) cells intravenously. Treatment with either vehicle, 3-Cl-AHPC or compound 16 (the compound of Example 1) was instituted the following day. Once symptoms such as diarrhea, dehydration, weight loss, ascites, paralysis or general weakness became evident, mice were euthanized. B) TF(v-SRC) subcutaneous mouse model. ICR-SCID mice were trocared subcutaneously bilaterally with TF(v-SRC) tumor fragments. Animals with equal tumor weights determined as described previously (Zhang Y. et al., Blood. 2002; 100:2917-2925) were assigned to three experimental arms: 1) control (vehicle treated), 2) subcutaneously treated with compound 16, and 3) intravenously treated with compound 16. The percent increase in the host life-span (% ILS) of the FFMA-AML and TF(v-SRC) bearing mice was calculated by subtracting the […] divided by the median day of death of the AML-bearing vehicle treated mice. In order to determine the efficacy of the 3-Cl-AHPC and compound 16, survival distribution of the 3-Cl-AHPC or compound 16-treated (T) or vehicle (C) groups were compared using the log-rank test. Survival was characterized as the duration of the animal's life span 24 h after the initiation of the xenograft until an observed event (euthanasia or death). A p-value of less than 5% (p<0.05) was considered statistically significant.
The ability of compound 16 to inhibit the growth of TF(v-SRC) cells in SCID mice was determined. SCID mice were injected with 10 million TF(v-SRC) cells. The mice were treated intravenously with compound 16 (20 mg/kg) or vehicle every other day for a total of 15 doses. […] TF(v-SRC) growth in the SCID mice was documented by flow cytometry.

TF(v-SRC) tumors = assay: Test F: inhibition of growth of palpable TF(v-SRC) tumors; assay type: in vivo, SCID mice; details: palpable tumors of 100 mg
Procedure: as §1, with “Groups were treated either intravenously or subcutaneously at a distant site from the tumor with 20 mg/kg of compound 16 on a Monday, Wednesday and Friday schedule for 12 injections (4 weeks). Control mice were treated intravenously with vehicle.” left out
Non-obese diabetic-severe combined immunodeficiency (NOD-SCID) and ICR-SCID mice were obtained from Jackson Laboratories (Bar Harbor, Me.) and Taconic Farms (Germantown, N.Y.), respectively. […] Animals with equal tumor weights determined as described previously (Zhang Y. et al., Blood. 2002; 100:2917-2925) were assigned to three experimental arms: 1) control (vehicle treated), 2) subcutaneously treated with compound 16, and 3) intravenously treated with compound 16. […]

| Compound | mortality [1] | clinical signs of toxicity (TF(v-SRC) cells) | length of survival (TF(v-SRC) cells) | malignant cells by flow cytometry (lymph node/tumor specimens) (TF(v-SRC) cells) | treated mice with no evidence of leukemia (TF(v-SRC) cells) | weight loss compared to vehicle-treated mice (TF(v-SRC) cells) | reduction in TF(v-SRC) growth (TF(v-SRC) tumors; 20 mg/kg intravenously every other day) | reduction in TF(v-SRC) growth (TF(v-SRC) tumors; 20 mg/kg subcutaneously at a remote site every other day) |
| --- | --- | --- | --- | --- | --- | --- | --- | --- |
| O=C(O)C=Cc1ccc(-c2ccc(O)c(C34CC5CC(CC(C5)C3)C4)c2)c(Cl)c1 [Compound 3-Cl-AHPC, 4-[3-(1-adamantyl)-4-hydroxyphenyl]-3-chlorocinnamic acid, reference compound] | One of the mice in the group treated with 3-Cl-AHPC died 48 hours after the final injection |  |  |  |  |  |  |  |
| O=C(O)/C=C/c1cnc(-c2ccc(O)c(C34CC5CC(CC(C5)C3)C4)c2)nc1 [Compound 16, (E)-3-[2-(3-(1-Adamantyl)-4-hydroxyphenyl)-5-pyrimidinyl]-2-propenoic acid] |  | did not display any evidence of diarrhea, dehydration, scruffy coat, or decreased physical activity | marked increase in the length of survival | No malignant cells were identified | 87% | did not display any evidence of weight loss | 55% | 55% |
